Results published in ChEMBL document CHEMBL4433228, “Identification and immunological evaluation of novel TLR2 agonists through structure optimization of Pam3CSK4” (Bioorg Med Chem, 2019).
Activity calls are given as the source filed them. The calls are words filed in the database; no cut-off is given here. Residues, ends and D or L forms follow the SMILES beside them. *: point of attachment. Propyl(2R-PamO,3-PamO) = CCCCCCCCCCCCCCCC(=O)OC[C@H](C*)OC(=O)CCCCCCCCCCCCCCC; Palmitoyl = CCCCCCCCCCCCCCCC(=O)*

Experiments:
[1] = system: BV-2; experiment: Cytotoxicity against mouse BV2 cells assessed as cell viability up to 5 uM incubated for 24 hrs by CCK-8 assay; type: cell-based; conditions: bv-2, 24 h
[2] = system: BV-2; experiment: Effect on IkappaBalpha protein expression in mouse BV2 cells at 0.2 to 2 uM incubated for 12 hrs by Western blot analysis; type: ADME, cell-based; conditions: bv-2, 12 h
[3] = (§1) Effect on IL-6 mRNA expression in TLR2-/- mouse BMDM cells at 0.1 to 1 uM by qRT-PCR analysis; type: ADME, cell-based
[4] = as §1; type: ADME, cell-based; remark: listed apart in the source
[5] = molecular target: Toll-like receptor 2 (Mus musculus) (UniProt Q9QUN7); experiment: Agonist activity at TLR2 in mouse BV2 cells assessed as increase in IL-6 secretion at 2 uM incubated for 24 hrs by ELISA; type: cell-based
[6] = molecular target: T1, TLR2/TLR6 (Homo sapiens) (UniProt O60603+Q9Y2C9); experiment: Agonist activity at TLR2/6 in PMA-differentiated human THP-1 cells assessed as induction of IL-6 production at 2.5 uM incubated for 24 hrs after preincubation with anti-hTLR6-IGG for 2 hrs by ELISA; type: cell-based
[7] = molecular target: Toll-like receptor 1/2 (Homo sapiens) (UniProt O60603+Q15399); experiment: Agonist activity at TLR2/1 in PMA-differentiated human THP-1 cells assessed as induction of IL-6 production at 2.5 uM incubated for 24 hrs after preincubation with anti-hTLR2-IGA for 2 hrs by ELISA; type: cell-based
[8] = molecular target: Toll-like receptor 2 (Mus musculus) (UniProt Q9QUN7); experiment: Agonist activity at TLR2 in mouse dendritic cells assessed as upregulation CD80 expression at 100 ng/ml by flow cytometry; type: cell-based
[9] = molecular target: Toll-like receptor 2 (Mus musculus) (UniProt Q9QUN7); experiment: Agonist activity at TLR2 in mouse BV2 cells assessed as increase in IL-6 secretion at 1 uM incubated for 24 hrs in presence of NF-kappaB inhibitor triptolide by ELISA; type: cell-based
[10] = molecular target: Toll-like receptor 2 (Mus musculus) (UniProt Q9QUN7); experiment: Activation of TLR2 in wild type mouse BMDM cells assessed as stimulation of TNFalpha production at 0.1 to 1 uM incubated for 24 hrs by ELISA; type: cell-based
[11] = system: THP-1; experiment: Agonist activity at TLR2/1 in PMA-differentiated human THP-1 cells assessed as induction of IL-6 production at 2.5 uM incubated for 24 hrs after preincubation with anti-hTLR1-IGG for 2 hrs by ELISA; type: cell-based
[12] = system: BMDM; experiment: Effect on IL-6 production in TLR2-/- mouse BMDM cells at 0.1 to 1 uM incubated for 24 hrs by ELISA; type: functional, cell-based
[13] = molecular target: Toll-like receptor 2 (Mus musculus) (UniProt Q9QUN7); experiment: Activation of TLR2 in wild type mouse BMDM cells assessed as stimulation of IL-6 production at 0.1 to 1 uM incubated for 24 hrs by ELISA; type: cell-based
[14] = molecular target: Toll-like receptor 2 (Mus musculus) (UniProt Q9QUN7); experiment: Agonist activity at TLR2 in wild type mouse BMDM cells assessed as induction of NFkappaB pathway activation by measuring increase in IL-6 mRNA expression by qRT-PCR analysis; type: cell-based
[15] = molecular target: Toll-like receptor 2 (Mus musculus) (UniProt Q9QUN7); experiment: Activation of TLR2 in wild type mouse BMDM cells assessed as stimulation of IL-12 production at 0.1 to 1 uM incubated for 24 hrs by ELISA; type: cell-based
[16] = system: BMDM; experiment: Effect on TNFalpha production in TLR2-/- mouse BMDM cells at 0.1 to 1 uM incubated for 24 hrs by ELISA; type: functional, cell-based
[17] = system: BMDM; experiment: Effect on IL-12 production in TLR2-/- mouse BMDM cells at 0.1 to 1 uM incubated for 24 hrs by ELISA; type: functional, cell-based
[18] = molecular target: Toll-like receptor 2 (Mus musculus) (UniProt Q9QUN7); experiment: Agonist activity at TLR2 in mouse BV2 cells assessed as stimulation of NFkappaB pathway by measuring increase in IkappaBalpha phosphorylation incubated for 12 hrs by Western blot analysis; type: cell-based
[19] = molecular target: Toll-like receptor 2 (Mus musculus) (UniProt Q9QUN7); experiment: Agonist activity at TLR2 in mouse dendritic cells assessed as upregulation CD86 expression at 100 ng/ml by flow cytometry; type: cell-based
[20] = molecular target: Toll-like receptor 2 (Homo sapiens) (UniProt O60603); experiment: Agonist activity at human TLR2 in PMA-differentiated THP-1 cells assessed as induction of IL-6 production at 0.5 to 2.5 uM incubated for 24 hrs by ELISA; type: cell-based
[21] = molecular target: Toll-like receptor 2 (Mus musculus) (UniProt Q9QUN7); experiment: Agonist activity at TLR2 in mouse RAW264.7 cells assessed as induction of IL-6 production incubated for 24 hrs by ELISA; type: cell-based
[22] = molecular target: Toll-like receptor 2 (Mus musculus) (UniProt Q9QUN7); experiment: Agonist activity at TLR2 in mouse dendritic cells assessed as upregulation MHC class 2 expression at 100 ng/ml by flow cytometry; type: cell-based
[23] = molecular target: Toll-like receptor 1/2 (Mus musculus) (UniProt Q9QUN7+Q9EPQ1); experiment: Agonist activity at TLR2/1 in mouse BV2 cells assessed as induction of IL-6 production at 2 uM incubated for 24 hrs in presence of TLR2/1 inhibitor CU-CPT22 by ELISA; type: cell-based
[24] = molecular target: T1, TLR2/TLR6 (Homo sapiens); experiment: Agonist activity at TLR2/6 in PMA-differentiated human THP-1 cells assessed as induction of IL-6 production at 2.5 uM incubated for 24 hrs after preincubation with […] for 2 hrs by ELISA; type: cell-based
[25] = system: Dendritic cell; experiment: Effect on MHC class 2 expression in TLR2-/- mouse dendritic cells at 100 ng/ml by flow cytometry; type: ADME, cell-based
[26] = molecular target: Toll-like receptor 2 (Mus musculus, UniProt Q9QUN7); experiment: Agonist activity at TLR2 in wild type mouse BMDM cells assessed as induction of NFkappaB pathway activation by measuring increase in TNF-alpha mRNA expression by qRT-PCR analysis; type: cell-based
[27] = system: Dendritic cell; experiment: Effect on CD86 expression in TLR2-/- mouse dendritic cells at 100 ng/ml by flow cytometry; type: ADME, cell-based
[28] = Effect on TNFalpha mRNA expression in TLR2-/- mouse BMDM cells at 0.1 to 1 uM by qRT-PCR analysis; type: ADME, cell-based
[29] = system: Dendritic cell; experiment: Effect on CD80 expression in TLR2-/- mouse dendritic cells at 100 ng/ml by flow cytometry; type: ADME, cell-based
[30] = system: THP-1; experiment: Cytotoxicity against human THP1 cells assessed as cell viability up to 5 uM incubated for 24 hrs by CCK-8 assay; type: cell-based; conditions: thp-1, 24 h

Chain of Toll-like receptor 2 (Mus musculus) (Q9QUN7 whole entry): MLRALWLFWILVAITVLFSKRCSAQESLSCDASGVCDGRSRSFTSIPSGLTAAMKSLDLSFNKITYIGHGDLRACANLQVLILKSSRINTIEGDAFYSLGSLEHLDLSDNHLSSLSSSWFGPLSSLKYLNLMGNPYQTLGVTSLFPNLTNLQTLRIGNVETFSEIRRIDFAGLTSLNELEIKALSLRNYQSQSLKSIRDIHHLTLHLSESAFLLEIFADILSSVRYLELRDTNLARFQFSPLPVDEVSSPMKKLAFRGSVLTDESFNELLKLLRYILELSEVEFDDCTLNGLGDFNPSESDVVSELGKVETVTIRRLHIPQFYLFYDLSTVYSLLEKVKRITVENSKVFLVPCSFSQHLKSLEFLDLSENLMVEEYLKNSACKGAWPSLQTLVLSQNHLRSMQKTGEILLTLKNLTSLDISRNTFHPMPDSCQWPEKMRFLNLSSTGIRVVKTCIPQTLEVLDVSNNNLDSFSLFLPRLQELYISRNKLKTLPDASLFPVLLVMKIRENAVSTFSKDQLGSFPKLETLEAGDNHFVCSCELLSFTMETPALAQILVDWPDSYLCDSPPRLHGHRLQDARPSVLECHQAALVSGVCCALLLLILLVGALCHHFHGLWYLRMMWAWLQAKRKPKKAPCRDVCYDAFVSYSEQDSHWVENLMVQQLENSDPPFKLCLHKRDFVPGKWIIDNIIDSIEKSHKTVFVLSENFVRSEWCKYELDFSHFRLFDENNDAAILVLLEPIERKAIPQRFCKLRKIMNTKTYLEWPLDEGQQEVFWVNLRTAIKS
Chain of Toll-like receptor 2 (Homo sapiens) (O60603 whole entry): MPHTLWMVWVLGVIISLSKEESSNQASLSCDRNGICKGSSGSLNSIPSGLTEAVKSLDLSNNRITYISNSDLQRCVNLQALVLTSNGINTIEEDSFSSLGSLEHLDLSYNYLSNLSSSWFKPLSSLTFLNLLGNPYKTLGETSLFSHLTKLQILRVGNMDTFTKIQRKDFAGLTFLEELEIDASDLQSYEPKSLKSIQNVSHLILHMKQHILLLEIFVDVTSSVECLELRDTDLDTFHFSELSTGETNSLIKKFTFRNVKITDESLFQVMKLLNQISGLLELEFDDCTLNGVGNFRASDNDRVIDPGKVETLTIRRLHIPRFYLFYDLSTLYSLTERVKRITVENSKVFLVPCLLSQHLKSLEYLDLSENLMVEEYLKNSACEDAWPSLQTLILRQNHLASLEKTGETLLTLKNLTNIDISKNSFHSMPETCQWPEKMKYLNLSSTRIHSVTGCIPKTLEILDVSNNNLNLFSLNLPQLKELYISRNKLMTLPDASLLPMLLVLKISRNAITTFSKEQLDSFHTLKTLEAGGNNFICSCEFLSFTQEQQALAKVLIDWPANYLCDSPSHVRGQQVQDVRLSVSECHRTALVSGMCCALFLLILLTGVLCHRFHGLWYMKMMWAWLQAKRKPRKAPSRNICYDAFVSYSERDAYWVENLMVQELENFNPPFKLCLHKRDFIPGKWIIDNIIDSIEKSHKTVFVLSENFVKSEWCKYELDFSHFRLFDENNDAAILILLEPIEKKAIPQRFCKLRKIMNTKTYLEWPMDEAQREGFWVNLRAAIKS
Chain of Toll-like receptor 2 (Q9QUN7 whole entry): as the sequence (Q9QUN7 whole entry) above

CCCCCCCCCCCCCCCCOC(=O)NCCSC[C@H](NC(=O)NCCCCCCCCCCCCCC)C(=O)N[C@@H](CO)C(=O)N[C@@H](CCCCN)C(=O)N[C@@H](CCCCN)C(=O)N[C@@H](CCCCN)C(=O)N[C@@H](CCCCN)C(=O)O
Activity [1]: Non-Toxic

CCCCCCCCCCCCCCCC(=O)N[C@@H](CSCCNC(=O)OCCCCCCCCCCCCCC)C(=O)N[C@@H](CO)C(=O)N[C@@H](CCCCN)C(=O)N[C@@H](CCCCN)C(=O)N[C@@H](CCCCN)C(=O)N[C@@H](CCCCN)C(=O)O
Activity [2]: Active | Activity [3]: Non-Toxic | Activity [4]: Non-Toxic

CCCCCCCCCCCCCCCC(=O)N[C@@H](CSCCOC(=O)CCCCCCCCCCCCCCC)C(=O)N[C@H](CO)C(=O)N[C@@H](CCCCN)C(=O)N[C@@H](CCCCN)C(=O)N[C@@H](CCCCN)C(=O)N[C@@H](CCCCN)C(=O)O
Activity [5]: Active | Activity [6]: inactive | Activity [7]: Active | Activity [8]: Dose-dependent effect | Activity [9]: inactive | Activity [10]: Active | Activity [11]: inactive | Activity [12]: Dose-dependent effect | Activity [13]: inactive | Activity [14]: Dose-dependent effect | Activity [15]: Active | Activity [16]: inactive

CCCCCCCCCCCCCCCCNC(=O)NCCSC[C@H](NC(=O)CCCCCCCCCCCCCCC)C(=O)N[C@H](CO)C(=O)N[C@@H](CCCCN)C(=O)N[C@@H](CCCCN)C(=O)N[C@@H](CCCCN)C(=O)N[C@@H](CCCCN)C(=O)O
Activity [7]: inactive | Activity [12]: inactive

CCCCCCCCCCCCCCCC(=O)N[C@@H](CSCCOC(=O)CCCCCCCCCCCCCCC)C(=O)N[C@@H](CO)C(=O)N[C@@H](CCCCN)C(=O)N[C@@H](CCCCN)C(=O)N[C@@H](CCCCN)C(=O)N[C@@H](CCCCN)C(=O)O
Activity [2]: Active | Activity [3]: Non-Toxic | Activity [4]: Non-Toxic | Activity [1]: Non-Toxic

CCCCCCCCCCCCCCCCOC(=O)NCCSC[C@H](NC(=O)CCCCCCCCCCCCCCC)C(=O)N[C@H](CO)C(=O)N[C@@H](CCCCN)C(=O)N[C@@H](CCCCN)C(=O)N[C@@H](CCCCN)C(=O)O
Activity [5]: Active | Activity [7]: Active | Activity [12]: Active

CCCCCCCCCCCCCCCC(=O)N[C@@H](CSC[C@@H](COC(=O)CCCCCCCCCCCCCCC)OC(=O)CCCCCCCCCCCCCCC)C(=O)N[C@@H](CO)C(=O)N[C@@H](CCCCN)C(=O)N[C@@H](CCCCN)C(=O)N[C@@H](CCCCN)C(=O)N[C@@H](CCCCN)C(=O)O (Palmitoyl-C(Propyl(2R-PamO,3-PamO))SKKKK-OH)
Activity [6]: inactive | Activity [8]: Dose-dependent effect | Activity [17]: Active | Activity [11]: inactive | Activity [3]: Non-Toxic | Activity [4]: Non-Toxic | Activity [14]: Dose-dependent effect

CCCCCCCCCCCCCCCCOC(=O)NCCSC[C@H](NC(=O)CCCCCCCCCCCCCCC)C(=O)N[C@@H](CO)C(=O)N[C@@H](CCCCN)C(=O)N[C@@H](CCCCN)C(=O)N[C@@H](CCCCN)C(=O)O
Activity [1]: Non-Toxic

CCCCCCCCCCCCCCCC(=O)N[C@@H](CSCCNC(=O)OCCCCCCCCCCCCCC)C(=O)N[C@H](CO)C(=O)N[C@@H](CCCCN)C(=O)N[C@@H](CCCCN)C(=O)N[C@@H](CCCCN)C(=O)N[C@@H](CCCCN)C(=O)O
Activity [7]: inactive | Activity [8]: Dose-dependent effect | Activity [9]: inactive | Activity [10]: Active | Activity [12]: Active | Activity [13]: inactive | Activity [14]: Dose-dependent effect | Activity [15]: Active | Activity [16]: inactive

CCCCCCCCCCCCCCCCOC(=O)NCCSC[C@H](NC(=O)CCCCCCCCCCCCCCC)C(=O)N[C@H](CO)C(=O)N[C@@H](CCCCN)C(=O)N[C@@H](CCCCN)C(=O)N[C@@H](CCCCN)C(=O)N[C@@H](CCCCN)C(=O)O
Activity [18]: inactive | Activity [5]: Active | Activity [6]: inactive | Activity [19]: Active | Activity [7]: Active | Activity [8]: Dose-dependent effect | Activity [9]: inactive | Activity [20]: Active | Activity [10]: Active | Activity [11]: inactive | Activity [12]: Active | Activity [21]: Dose-dependent effect | Activity [13]: inactive | Activity [22]: Active | Activity [14]: Dose-dependent effect | Activity [15]: Active | Activity [16]: inactive

CCCCCCCCCCCCCCCC(=O)NCCSC[C@H](NC(=O)CCCCCCCCCCCCCCC)C(=O)N[C@H](CO)C(=O)N[C@@H](CCCCN)C(=O)N[C@@H](CCCCN)C(=O)N[C@@H](CCCCN)C(=O)N[C@@H](CCCCN)C(=O)O
Activity [7]: inactive | Activity [12]: inactive

CCCCCCCCCCCCCCCCOC(=O)NCCSC[C@H](NC(=O)NCCCCCCCCCCCCCC)C(=O)N[C@H](CO)C(=O)N[C@@H](CCCCN)C(=O)N[C@@H](CCCCN)C(=O)N[C@@H](CCCCN)C(=O)N[C@@H](CCCCN)C(=O)O
Activity [5]: Active | Activity [23]: inactive | Activity [24]: inactive | Activity [12]: inactive

CCCCCCCCCCCCCCCCOC(=O)NCCSC[C@H](NC(=O)CCCCCCCCCCCCCCC)C(=O)N[C@@H](CO)C(=O)N[C@@H](CCCCN)C(=O)N[C@@H](CCCCN)C(=O)N[C@@H](CCCCN)C(=O)N[C@@H](CCCCN)C(=O)O
Activity [25]: Non-Toxic | EC50 [26]: 83.1 nM | Activity [2]: Active | Activity [27]: Non-Toxic | Activity [3]: Non-Toxic | Activity [28]: Non-Toxic | Activity [29]: Active | Activity [4]: Non-Toxic | Activity [30]: Non-Toxic | Activity [1]: Non-Toxic
